PubChem BioAssay (NCI)
Where “and” joins values, the source holds several entries; their conditions need not be identical. Equal values may be shown once.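 Interpolation was linear, between the two tested concentrations surrounding the appropriate level; five concentrations were tested over 48 hours in 96-well plates. GI50 = concentration required for 50% inhibition of growth. TGI denotes the concentration required for complete inhibition of growth.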

Key:
Assay in all cases: DTP human tumour cell line panel, 48 h
OVCAR-8 ovarian = test system: OVCAR-8 ovarian
OVCAR-5 ovarian = test system: OVCAR-5 ovarian
SN12C renal = test system: SN12C renal
NCI-H23 lung = test system: NCI-H23 lung
BT-549 breast = test system: BT-549 breast
EKVX NSCLC = test system: EKVX NSCLC
HS 578T breast = test system: HS 578T breast
SK-MEL-2 melanoma = test system: SK-MEL-2 melanoma
SR leukemia = test system: SR leukemia
HOP-92 NSCLC = test system: HOP-92 NSCLC

CCOc1ccc(NC(=S)/N=C/C(C(=O)Nc2ccccc2C)=C(\C)O)cc1
TGI (OVCAR-8 ovarian): > 100 µM | TGI (OVCAR-5 ovarian): > 100 µM | TGI (SN12C renal): > 100 µM | TGI (NCI-H23 lung): > 100 µM | TGI (BT-549 breast): > 100 µM | TGI (EKVX NSCLC): > 100 µM | TGI (HS 578T breast): > 100 µM | TGI (SK-MEL-2 melanoma): > 100 µM

COC(=O)C1(Cc2ccccc2)Cc2ccccc2C1=O (stereo not given)
TGI (SR leukemia): 78.3 µM | TGI (HOP-92 NSCLC): > 100 µM | TGI (OVCAR-8 ovarian): > 100 µM | TGI (OVCAR-5 ovarian): > 100 µM | TGI (SN12C renal): > 100 µM | TGI (NCI-H23 lung): > 100 µM | TGI (EKVX NSCLC): > 100 µM | TGI (HS 578T breast): > 100 µM | TGI (SK-MEL-2 melanoma): 65.5 µM

CCOc1cc(C=O)ccc1O
TGI (SR leukemia): > 100 µM | TGI (HOP-92 NSCLC): > 100 µM | TGI (OVCAR-8 ovarian): > 100 µM | TGI (OVCAR-5 ovarian): > 100 µM | TGI (SN12C renal): > 100 µM | TGI (NCI-H23 lung): > 100 µM | TGI (EKVX NSCLC): > 100 µM | TGI (HS 578T breast): > 100 µM | TGI (SK-MEL-2 melanoma): > 100 µM

Cc1c(-c2coc(-c3ccc(Cl)cc3)n2)c(=O)n(-c2ccccc2)n1C
TGI (SR leukemia): > 100 µM | TGI (HOP-92 NSCLC): > 100 µM | TGI (OVCAR-8 ovarian): > 100 µM | TGI (OVCAR-5 ovarian): > 100 µM | TGI (SN12C renal): > 100 µM | TGI (NCI-H23 lung): > 100 µM | TGI (EKVX NSCLC): > 100 µM | TGI (SK-MEL-2 melanoma): > 100 µM

CC(=O)Nc1ccc(C(=O)N2N=C(C)/C(=C/c3cccc(O)c3)C2=O)cc1
TGI (OVCAR-8 ovarian): > 100 µM | TGI (OVCAR-5 ovarian): > 100 µM | TGI (SN12C renal): > 100 µM | TGI (NCI-H23 lung): > 100 µM | TGI (EKVX NSCLC): > 100 µM | TGI (SK-MEL-2 melanoma): > 100 µM

COc1cc(/C=C2\C[C@H]3[C@@H]4CC=C5C[C@@H](N6CCCC6)CC[C@]5(C)[C@H]4CC[C@]3(C)[C@H]2OC(C)=O)cc(OC)c1OC
TGI (HOP-92 NSCLC): 22.3 µM | TGI (OVCAR-8 ovarian): 28.7 µM | TGI (OVCAR-5 ovarian): 29.7 µM | TGI (SN12C renal): 27.8 µM | TGI (NCI-H23 lung): 28.5 µM | TGI (BT-549 breast): 28.1 µM | TGI (EKVX NSCLC): 27.3 µM | TGI (HS 578T breast): 35.1 µM | TGI (SK-MEL-2 melanoma): 31.6 µM

CC(=O)c1c(O)c(C)c(O)c2c1OC1=CC(=O)C(C(C)=O)C(=O)C12C (stereo not given)
GI50 (HOP-92 NSCLC): 5.38 µM and 18.7 µM | TGI (HOP-92 NSCLC): 9.69 µM and 57.1 µM | GI50 (OVCAR-8 ovarian): 4.84 µM and 14.1 µM | TGI (OVCAR-8 ovarian): 22.3 µM and 52.2 µM | GI50 (OVCAR-5 ovarian): 17.1 µM and 38.1 µM | TGI (OVCAR-5 ovarian): 50.4 µM and 84.6 µM | TGI (SN12C renal): 8.95 µM and 50.1 µM | GI50 (NCI-H23 lung): 6.72 µM and 18.7 µM | TGI (NCI-H23 lung): 26.6 µM and 49.6 µM | GI50 (EKVX NSCLC): 4.39 µM and 20.3 µM | TGI (EKVX NSCLC): 17 µM and 48.2 µM | GI50 (SK-MEL-2 melanoma): 4.42 µM and 25.4 µM | TGI (SK-MEL-2 melanoma): 14.5 µM and 50.6 µM

Fc1nc(F)nc(-c2c3ccccc3c3n2CCS3)n1
TGI (SR leukemia): > 100 µM | TGI (HOP-92 NSCLC): > 100 µM | TGI (OVCAR-5 ovarian): > 100 µM | TGI (SN12C renal): > 100 µM | TGI (NCI-H23 lung): > 100 µM | TGI (EKVX NSCLC): > 100 µM | TGI (SK-MEL-2 melanoma): > 100 µM

COc1ccc(CC2C(=O)NC(C)C(=O)N(C)C3Cc4ccc(cc4)Oc4cc(ccc4O)CC(C(=O)NC(C)C(=O)NC(C)C(=O)N2C)N(C)C3=O)cc1 (stereo not given)
TGI (SR leukemia): 0.112 µM | GI50 (HOP-92 NSCLC): 0.000108 µM | TGI (HOP-92 NSCLC): 0.000866 µM | GI50 (OVCAR-8 ovarian): 0.00034 µM | TGI (OVCAR-8 ovarian): 0.144 µM and 0.0379 µM | TGI (OVCAR-5 ovarian): 0.0305 µM and 0.0607 µM | GI50 (SN12C renal): 0.208 µM | TGI (SN12C renal): 0.281 µM and 0.536 µM | GI50 (NCI-H23 lung): < 0.0001 µM | TGI (NCI-H23 lung): 0.0293 µM and 0.0212 µM and 0.158 µM | GI50 (EKVX NSCLC): 0.00125 µM | TGI (EKVX NSCLC): 0.144 µM and 0.0424 µM | GI50 (SK-MEL-2 melanoma): < 0.0001 µM

O=C(O)CCCc1nc2c(n1-c1ccccc1)C(=O)c1ccccc1C2=O
TGI (SR leukemia): > 100 µM | TGI (HOP-92 NSCLC): > 100 µM | TGI (OVCAR-8 ovarian): > 100 µM | TGI (OVCAR-5 ovarian): > 100 µM | TGI (SN12C renal): > 100 µM | TGI (NCI-H23 lung): > 100 µM | TGI (EKVX NSCLC): > 100 µM | TGI (HS 578T breast): > 100 µM | TGI (SK-MEL-2 melanoma): > 100 µM

O=C(CCN1CCCCC1CO)Nc1ccc2c(c1)C(=O)c1ccc(NC(=O)CCN3CCCCC3CO)cc1C2=O (stereo not given)
TGI (SR leukemia): 68.9 µM | TGI (HOP-92 NSCLC): 37.2 µM | TGI (OVCAR-8 ovarian): 39.6 µM | TGI (OVCAR-5 ovarian): 67.5 µM | TGI (SN12C renal): 25.5 µM | TGI (NCI-H23 lung): 38.1 µM | TGI (EKVX NSCLC): 47 µM | TGI (SK-MEL-2 melanoma): 18.8 µM

C/C(=N\O)c1ccc(Nc2c3ccccc3nc3occc23)cc1
TGI (HOP-92 NSCLC): > 50 µM | TGI (OVCAR-8 ovarian): 7.34 µM | TGI (OVCAR-5 ovarian): > 50 µM | TGI (SN12C renal): > 50 µM | TGI (NCI-H23 lung): > 10.8 µM | TGI (BT-549 breast): > 12.4 µM | TGI (EKVX NSCLC): > 50 µM | TGI (SK-MEL-2 melanoma): 3.5 µM

COc1cc2c(cc1OC)C1Cc3ccccc3CN1CCC2 (stereo not given)
TGI (SR leukemia): > 100 µM | TGI (HOP-92 NSCLC): > 100 µM | TGI (OVCAR-8 ovarian): > 100 µM | TGI (OVCAR-5 ovarian): > 100 µM | TGI (SN12C renal): > 100 µM | TGI (NCI-H23 lung): > 100 µM | TGI (EKVX NSCLC): > 100 µM | TGI (HS 578T breast): > 100 µM | TGI (SK-MEL-2 melanoma): > 100 µM

O=C(CCCN1CCc2[nH]c3cc(F)ccc3c2C1)c1ccc(F)cc1
TGI (SR leukemia): 26.1 µM | TGI (HOP-92 NSCLC): 8.59 µM | TGI (OVCAR-8 ovarian): 28.4 µM | TGI (OVCAR-5 ovarian): 24.7 µM | TGI (SN12C renal): 27.7 µM | TGI (NCI-H23 lung): 28 µM | TGI (EKVX NSCLC): 29.3 µM | TGI (HS 578T breast): 30 µM | TGI (SK-MEL-2 melanoma): 32.4 µM

C=C1C(=O)O[C@H]2C(=O)[C@H](C)CCC[C@@](C)(O)/C=C\C[C@@]3(C)O[C@@H]3C[C@@H]12
TGI (HOP-92 NSCLC): 23.8 µM | TGI (OVCAR-8 ovarian): 48 µM | TGI (OVCAR-5 ovarian): 3.64 µM | TGI (SN12C renal): 31.3 µM | TGI (NCI-H23 lung): 68.8 µM | TGI (HS 578T breast): 90.2 µM | TGI (SK-MEL-2 melanoma): 41.5 µM

CSc1nc2c(ncn2C2OCC(O)C(O)C2O)c(=O)[nH]1 (stereo not given)
TGI (HOP-92 NSCLC): > 100 µM | TGI (OVCAR-8 ovarian): > 100 µM | TGI (OVCAR-5 ovarian): > 100 µM | TGI (SN12C renal): > 100 µM | TGI (NCI-H23 lung): > 100 µM | TGI (EKVX NSCLC): > 100 µM | TGI (SK-MEL-2 melanoma): > 100 µM

NC(CO)c1ccccc1 (stereo not given)
TGI (SR leukemia): > 100 µM | TGI (HOP-92 NSCLC): > 100 µM | TGI (OVCAR-8 ovarian): > 100 µM | TGI (OVCAR-5 ovarian): > 100 µM | TGI (EKVX NSCLC): > 100 µM | TGI (SK-MEL-2 melanoma): > 100 µM
